From US9663473B2 (Actelion Pharmaceuticals Ltd, priority 2013, dated 2017)
Structures can show the parent of a compound that is named as a salt.

Molecular target: T1, recombinant human ALX receptor (Homo sapiens, UniProt P25090)
T1 construct: expressed in transfected cells; host or cells: HEK293 (HEK293-hALXR-Gα16)
T1 sequence (P25090 1-351): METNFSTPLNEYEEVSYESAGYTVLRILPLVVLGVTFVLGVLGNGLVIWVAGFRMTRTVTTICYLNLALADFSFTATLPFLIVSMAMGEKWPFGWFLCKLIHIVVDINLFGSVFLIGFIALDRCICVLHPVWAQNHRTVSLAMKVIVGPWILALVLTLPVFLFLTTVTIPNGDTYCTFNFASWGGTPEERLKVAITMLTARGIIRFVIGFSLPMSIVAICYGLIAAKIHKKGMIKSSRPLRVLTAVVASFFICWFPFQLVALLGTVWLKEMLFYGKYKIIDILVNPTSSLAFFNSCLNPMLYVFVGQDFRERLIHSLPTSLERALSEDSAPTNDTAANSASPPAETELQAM
Experiment: Intracellular calcium measurements (FLIPR), ALX receptor agonistic activity
Assay type: cell-based
Settings: HEK293-hALXR-Gα16 cells, Fluo-4 calcium signal, normalized to WKYMVm 10 nM
How it was run: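 HEK293 cells co-expressing human ALX receptor and Gα16 were loaded with 1 μM Fluo-4 AM for 60 min at 37° C., then exposed to serially diluted compounds on FLIPR Tetra. Peak fluorescence above baseline (ex 488/em 540 nm) was normalized to 10 nM WKYMVm as high control.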

C[C@]1(O)CC[C@H](NC(=O)N[C@H](Cc2ccc(C(F)(F)F)cc2)c2nc3ccccc3[nH]2)CC1 [Example 256, 1-((R)-1-(1H-Benzo[d]imidazol-2-yl)-2-(4-(trifluoromethyl)phenyl)ethyl)-3-(trans-4-hydroxy-4-methylcyclohexyl)urea]
EC50: 13 nM

COc1ccc(C[C@@H](NC(=O)N[C@H]2CCCNC2)c2nc3ccccc3[nH]2)cc1 [Example 132, 1-((R)-1-(1H-Benzo[d]imidazol-2-yl)-2-(4-methoxyphenyl)ethyl)-3-((S)-piperidin-3-yl)urea]
EC50: 23 nM

COc1ccc(C[C@@H](NC(=O)NC2CCN(C3CC3)CC2)c2nc3ccccc3[nH]2)cc1 [Example 71, (R)-1-(1-(1H-Benzo[d]imidazol-2-yl)-2-(4-methoxyphenyl)ethyl)-3-(1-cyclopropylpiperidin-4-yl)urea]
EC50: 53 nM

COc1ccc(C[C@@H](NC(=O)N[C@@H]2CCN(C(=O)OC(C)(C)C)C2)c2nc3ccccc3[nH]2)cc1 [Example 118, (R)-tert-Butyl 3-(3-((R)-1-(1H-benzo[d]imidazol-2-yl)-2-(4-methoxyphenyl)ethyl)ureido)pyrrolidine-1-carboxylate]
EC50: 25 nM

COc1ccc(C[C@@H](NC(=O)NC(C)c2ccncn2)c2nc3ccccc3[nH]2)cc1 (stereo partly drawn) [Example 386, 1-((R)-1-(1H-Benzo[d]imidazol-2-yl)-2-(4-methoxyphenyl)ethyl)-3-(1-(pyrimidin-4-yl)ethyl)urea]
EC50: 1240 nM

COc1ccc(C[C@@H](NC(=O)NC2CCN(S(C)(=O)=O)C2)c2nc3ccccc3[nH]2)cc1 (stereo partly drawn) [Example 157, 1-((R)-1-(1H-Benzo[d]imidazol-2-yl)-2-(4-methoxyphenyl)ethyl)-3-(1-(methylsulfonyl)pyrrolidin-3-yl)urea]
EC50: 187 nM

O=C(N[C@H](Cc1ccc(C(F)(F)F)cc1)c1nc2cc(F)ccc2[nH]1)N[C@H]1CC[C@H](O)CC1 [Example 265, 1-((R)-1-(5-Fluoro-1H-benzo[d]imidazol-2-yl)-2-(4-(trifluoromethyl)phenyl)ethyl)-3-(trans-4-hydroxycyclohexyl)urea]
EC50: 4.7 nM

COc1ccc(C[C@@H](NC(=O)NC2CC2)c2nc3ccccc3[nH]2)cc1 [Example 19, (R)-1-(1-(1H-Benzo[d]imidazol-2-yl)-2-(4-methoxyphenyl)ethyl)-3-cyclopropylurea]
EC50: 600 nM

COc1ccc(C[C@@H](NC(=O)N[C@H](C(N)=O)c2ccccc2)c2nc3ccccc3[nH]2)cc1 [Example 339, (S)-2-(3-((R)-1-(1H-Benzo[d]imidazol-2-yl)-2-(4-methoxyphenyl)ethyl)ureido)-2-phenylacetamide]
EC50: 39 nM

COc1ccc(C[C@@H](NC(=O)N[C@H]2CCCC[C@@H]2CO)c2nc3ccccc3[nH]2)cc1 (relative stereo) [Example 32, 1-((R)-1-(1H-Benzo[d]imidazol-2-yl)-2-(4-methoxyphenyl)ethyl)-3-((1 S*,2S*)-2-(hydroxymethyl)cyclohexyl)urea]
EC50: 13 nM

COc1ccc(C[C@@H](NC(=O)NC2CCCc3ccccc32)c2nc3ccccc3[nH]2)cc1 (stereo partly drawn) [Example 27, 1-((R)-1-(1H-Benzo[d]imidazol-2-yl)-2-(4-methoxyphenyl)ethyl)-3-(1,2,3,4-tetrahydronaphthalen-1-yl)urea]
EC50: 26 nM

COc1ccc(C[C@@H](NC(=O)NCCc2ccc(C)c(C)c2)c2nc3ccccc3[nH]2)cc1 [Example 275, (R)-1-(1-(1H-Benzo[d]imidazol-2-yl)-2-(4-methoxyphenyl)ethyl)-3-(3,4-dimethylphenethyl)urea]
EC50: 126 nM

COc1ccc(C[C@@H](NC(=O)NCC2CCN(C(=O)OC(C)(C)C)CC2)c2nc3ccccc3[nH]2)cc1 [Example 146, (R)-tert-Butyl 4-((3-(1-(1H-benzo[d]imidazol-2-yl)-2-(4-methoxyphenyl)ethyl)ureido)methyl)piperidine-1-carboxylate]
EC50: 512 nM

COc1ccc(C[C@@H](NC(=O)N[C@H]2CC[C@H](O)CC2)c2nc3cc(OC)ccc3[nH]2)cc1 [Example 84, 1-(trans-4-Hydroxycyclohexyl)-3-((R)-1-(5-methoxy-1H-benzo[d]imidazol-2-yl)-2-(4-methoxyphenyl)ethyl)urea]
EC50: 11 nM

O=C(NC(Cc1ccc(C(F)(F)F)cc1F)c1nc2cc(F)ccc2[nH]1)N[C@H]1CC[C@H](O)CC1 (single isomer, unassigned; ent-1) [Example 363, 1-(1-(5-Fluoro-1H-benzo[d]imidazol-2-yl)-2-(2-fluoro-4-(trifluoromethyl)phenyl)ethyl)-3-(trans-4-hydroxycyclohexyl)urea (ent-1)]
EC50: 5.6 nM

COc1ccc(CC(C)(NC(=O)N[C@H]2CC[C@H](O)CC2)c2nc3ccccc3[nH]2)cc1 (relative stereo) [Example 1, 1-(2-(1H-Benzo[d]imidazol-2-yl)-1-(4-methoxyphenyl)propan-2-yl)-3-(trans-4-hydroxycyclohexyl)urea]
EC50: 152 nM

(R)-tert-Butyl 4-((3-(1-(1H-benzo[d]imidazol-2-yl)-2-(4-methoxyphenyl)ethyl)ureido)methyl)piperidine-1-carboxylate [Example 106]
EC50: 538 nM

COc1ccc(C[C@@H](NC(=O)NC2CCCc3c(OC)cccc32)c2nc3ccccc3[nH]2)cc1 (stereo partly drawn) [Example 346, 1-((R)-1-(1H-Benzo[d]imidazol-2-yl)-2-(4-methoxyphenyl)ethyl)-3-(5-methoxy-1,2,3,4-tetrahydronaphthalen-1-yl)urea]
EC50: 56 nM

COc1ccc(C[C@@H](NC(=O)N[C@@H]2CCC[C@H]2O)c2nc3ccccc3[nH]2)cc1 [Example 113, 1-((R)-1-(1H-Benzo[d]imidazol-2-yl)-2-(4-methoxyphenyl)ethyl)-3-((1R,2R)-2-hydroxycyclopentyl)urea]
EC50: 20 nM

COc1ccc(C[C@@H](NC(=O)NC2(c3ccc(F)cc3)CC2)c2nc3ccccc3[nH]2)cc1 [Example 341, (R)-1-(1-(1H-Benzo[d]imidazol-2-yl)-2-(4-methoxyphenyl)ethyl)-3-(1-(4-fluorophenyl)cyclopropyl)urea]
EC50: 397 nM

COc1ccc(CC(NC(=O)N[C@H](C)c2cccc(Cl)c2)c2nc3ccccc3[nH]2)cc1 (stereo partly drawn) [Example 41, 1-(1-(1H-Benzo[d]imidazol-2-yl)-2-(4-methoxyphenyl)ethyl)-3-((R)-1-(3-chlorophenyl)ethyl)urea]
EC50: 776 nM

CC[C@H](NC(=O)N[C@H](Cc1ccc(OC)cc1)c1nc2ccccc2[nH]1)c1ccccc1 [Example 345, 1-((R)-1-(1H-Benzo[d]imidazol-2-yl)-2-(4-methoxyphenyl)ethyl)-3-((S)-1-phenylpropyl)urea]
EC50: 127 nM

COc1ccc(CC(NC(=O)N[C@H]2CC[C@H](O)CC2)c2nc3ccncc3[nH]2)cc1 (relative stereo) [Example 428, 1-(1-(3H-imidazo[4,5-c]pyridin-2-yl)-2-(4-methoxyphenyl)ethyl)-3-(trans-4-hydroxycyclohexyl)urea]
EC50: 299 nM

COc1ccc(CC(NC(=O)N[C@H]2CC[C@H](O)CC2)c2nc3ccccc3[nH]2)cc1F (single isomer, unassigned; ent-1) [Example 309, 1-(1-(1H-Benzo[d]imidazol-2-yl)-2-(3-fluoro-4-methoxyphenyl)ethyl)-3-(trans-4-hydroxycyclohexyl)urea (ent-1)]
EC50: 3.7 nM

COc1ccc(CC(NC(=O)Nc2ccnn2-c2ccc(F)cc2)c2nc3ccccc3[nH]2)cc1 (centres unmarked) [Example 410, 1-(1-(1H-benzo[d]imidazol-2-yl)-2-(4-methoxyphenyl)ethyl)-3-(1-(4-fluorophenyl)-1H-pyrazol-5-yl)urea]
EC50: 45 nM

COc1ccc(C[C@@H](NC(=O)NCc2ccn(CC(F)(F)F)n2)c2nc3ccccc3[nH]2)cc1 [Example 293, (R)-1-(1-(1H-Benzo[d]imidazol-2-yl)-2-(4-methoxyphenyl)ethyl)-3-((1-(2,2,2-trifluoroethyl)-1H-pyrazol-3-yl)methyl)urea]
EC50: 168 nM

COc1ccc(C[C@@H](NC(=O)NCc2ccccc2OC)c2nc3ccccc3[nH]2)cc1 [Example 137]
EC50: 726 nM

COc1ccc(C[C@@H](NC(=O)N[C@H]2CC[C@H](O)CC2)c2nc3ccc(Cl)cc3[nH]2)cc1 [Example 36, 1-((R)-1-(6-Chloro-1H-benzo[d]imidazol-2-yl)-2-(4-methoxyphenyl)ethyl)-3-(trans-4-hydroxycyclohexyl)urea]
EC50: 1 nM

COc1ccc(C[C@@H](NC(=O)Nc2ccon2)c2nc3ccccc3[nH]2)cc1 [Example 379, (R)-1-(1-(1H-Benzo[d]imidazol-2-yl)-2-(4-methoxyphenyl)ethyl)-3-(isoxazol-3-yl)urea hydrochloride]
EC50: 1090 nM

COc1ccc(C[C@@H](NC(=O)NC2CCCN(CCF)C2)c2nc3ccccc3[nH]2)cc1 (stereo partly drawn) [Example 180, 1-((R)-1-(1H-Benzo[d]imidazol-2-yl)-2-(4-methoxyphenyl)ethyl)-3-(1-(2-fluoroethyl)piperidin-3-yl)urea]
EC50: 59 nM

O=C(N[C@H](Cc1ccc(C(F)(F)F)cc1)c1nc2ccccc2[nH]1)NC12CCC(O)(CC1)CC2 [Example 255, (R)-1-(1-(1H-Benzo[d]imidazol-2-yl)-2-(4-(trifluoromethyl)phenyl)ethyl)-3-(4-hydroxybicyclo[2.2.2]octan-1-yl)urea]
EC50: 27 nM

COc1ccc(C[C@@H](NC(=O)NCC2CCNCC2)c2nc3ccccc3[nH]2)cc1 [Example 149, (R)-1-(1-(1H-Benzo[d]imidazol-2-yl)-2-(4-methoxyphenyl)ethyl)-3-(piperidin-4-ylmethyl)urea]
EC50: 168 nM
